Tests used:
[1] = volume median diameter
Protocol: This is synonymous with volume median diameter, and it was measured using a laser diffraction and scattering particle diameter analyzer, the LMS-24 SK Laser Micron Sizer (Seishin Enterprise Co. Ltd.) and expressed as a cumulative 50% volume particle diameter.

[2] = width of approximately 300 crystals
Protocol: The crystals were observed and photographed using a VH-8000 digital microscope (Keyence Corporation). The width of approximately 300 crystals was measured and calculations performed.

SMILES | Average particle diameter [1] | Average width [2]
N[C@@H](CCC(=O)N[C@@H](CS)C(=O)NCC(=O)O)C(=O)O [Commercial product A, glutathione] | 9 μm | –
N[C@@H](CCC(=O)N[C@@H](CS)C(=O)NCC(=O)O)C(=O)O [commercial product B, glutathione] | – | 3 μm

From patent US20100099847A1 (Kyowa Hakko Bio Co., Ltd., priority 2006, published 2010)
